Assay results: PubChem BioAssay AID1033 (Sanford-Burnham Center for Chemical Genomics, 2008)
Calls of active or inactive are those of the source. How the calls were made is not given here. Residues, ends and D or L forms follow the SMILES beside them.

The compounds below were run against Chaperone protein DnaK (Escherichia coli (strain K12)) (UniProt P0A6Y8) (assay: E. coli DnaK SBD ligand binding – biophysical, NMR, chaperone (AID 1033)). Conditions: Purified DnaK SBD.
Chain of Chaperone protein DnaK (Escherichia coli (strain K12)) (P0A6Y8 whole entry, looked up): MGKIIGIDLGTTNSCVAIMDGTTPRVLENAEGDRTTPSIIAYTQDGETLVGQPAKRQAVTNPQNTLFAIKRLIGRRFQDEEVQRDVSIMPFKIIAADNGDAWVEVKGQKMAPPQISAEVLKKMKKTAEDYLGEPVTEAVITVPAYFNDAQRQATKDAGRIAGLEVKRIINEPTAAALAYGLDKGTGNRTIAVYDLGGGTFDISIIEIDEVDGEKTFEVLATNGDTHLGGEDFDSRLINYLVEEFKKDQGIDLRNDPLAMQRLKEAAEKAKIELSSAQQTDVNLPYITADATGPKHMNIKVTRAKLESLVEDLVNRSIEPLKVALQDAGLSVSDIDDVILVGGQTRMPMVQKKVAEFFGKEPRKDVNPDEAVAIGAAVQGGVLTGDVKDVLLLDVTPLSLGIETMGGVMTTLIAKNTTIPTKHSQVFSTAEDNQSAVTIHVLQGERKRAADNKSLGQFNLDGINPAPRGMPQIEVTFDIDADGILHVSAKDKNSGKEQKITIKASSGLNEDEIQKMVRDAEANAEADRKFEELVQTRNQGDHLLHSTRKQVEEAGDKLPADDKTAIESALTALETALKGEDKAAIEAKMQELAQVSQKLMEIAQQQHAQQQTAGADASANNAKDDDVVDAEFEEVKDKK

Row | SMILES | Kd
1 | CC(=O)OC1CCC23C(=O)OC45CCC(C6=CC(=O)OC6)C4(C)CCC2C5CCC3(O)C1 (configuration not stated) | > 4 mM (inactive)
2 | S=C(Cc1cccnc1)N1CCOCC1 | > 4 mM (inactive)
3 | NC(=O)CSc1nnc(-c2ccncc2)o1 | > 4 mM (inactive)
4 | O=C(Nc1nnc(-c2ccco2)o1)c1ccc([N+](=O)[O-])o1 | > 4 mM (inactive)
5 | COc1cc2c(c(OC)c1OC)-c1ccc(OC)c(=O)cc1[C@@H](NC(C)=O)CC2 | > 4 mM (inactive)
6 | Cn1c(-c2ccccc2F)n[nH]c1=S | > 4 mM (inactive)
7 | OC12CC3CC(C1)C1(NCCS1)C(C3)C2 (configuration not stated) | > 4 mM (inactive)
8 | NC(=O)CSc1ccccn1 | > 4 mM (inactive)
9 | COc1ccccc1NC(=O)/C=N/O | > 4 mM (inactive)
10 | O=C(O)CCSc1nc2ccccc2s1 | > 4 mM (inactive)
11 | COc1ccccc1NC(=O)CCC(=O)O | > 4 mM (inactive)
12 | c1cnc(N2CCSCC2)nc1 | > 4 mM (inactive)
13 | c1ccc(-c2n[nH]c(-c3ccccn3)n2)nc1 | > 4 mM (inactive)
14 | Cc1onc(-c2ccccc2)c1CO | > 4 mM (inactive)
15 | Nc1cc(=O)[nH]c(SCC(=O)NCc2ccccc2)n1 | > 4 mM (inactive)
16 | CN1CCN(C(=O)c2ccccc2N)CC1 | > 4 mM (inactive)
17 | O=C(O)C1CCN(c2ccc(C(F)(F)F)cn2)CC1 | > 4 mM (inactive)
18 | CC(NC(=O)c1ccco1)C1CCCO1 (configuration not stated) | > 4 mM (inactive)
19 | S=C(CN1CCCC1=S)N1CCOCC1 | > 4 mM (inactive)
20 | O=C(O[C@@H]1Cc2c(O)cc(O)cc2O[C@@H]1c1ccc(O)c(O)c1)c1cc(O)c(O)c(O)c1 | > 4 mM (inactive)
21 | CCc1c(C)[nH]c(=S)c(C(N)=O)c1C | > 4 mM (inactive)
22 | O=c1cccc2n1C[C@H]1CNCC2C1 | > 4 mM (inactive)
23 | CN1CCN(S(=O)(=O)c2ccc(=O)[nH]c2)CC1 | > 4 mM (inactive)
24 | COc1cccc(NC(=O)c2cnn(C)c2Cl)c1 | > 4 mM (inactive)

Row | SMILES | Kd
25 | CC(=O)Oc1ccc(O)cc1 | > 4 mM (inactive)
26 | Cc1nc(-c2ccccc2)sc1C(N)=O | > 4 mM (inactive)
27 | O=C(c1ccccc1)c1ccccc1C(=O)N1CCOCC1 | > 4 mM (inactive)
28 | Cn1cnc2c(cnn2-c2ccccc2)c1=O | > 4 mM (inactive)
29 | Nc1ncnc2c1ncn2C1C[C@H](O)[C@@H](CO)O1 (some centres not stated) | > 4 mM (inactive)
30 | O=C1Nc2ccccc2C1C1(O)C(=O)Nc2ccc(F)cc21 (configuration not stated) | > 4 mM (inactive)
31 | O=C(O)c1sccc1-n1cccc1 | > 4 mM (inactive)
32 | COc1ccc(/C=N/n2cn[nH]c2=S)cc1 | > 4 mM (inactive)
33 | Cc1csc(CCc2nc(C)cs2)n1 | > 4 mM (inactive)
34 | Cc1ccnc(NS(=O)(=O)c2cccs2)c1 | > 4 mM (inactive)
35 | CC(=O)N1CCc2ccccc2C1CC(=O)O (configuration not stated) | > 4 mM (inactive)
36 | Nc1ccccc1N=C1CNC(=O)C1 | > 4 mM (inactive)
37 | COC(=O)[C@]1(C)CC[C@]2(C)CC[C@]3(C)C4=CC=C5C(=CC(=O)C(O)=C5C)[C@]4(C)CC[C@@]3(C)[C@@H]2C1 | > 4 mM (inactive)
38 | CC1CC[C@@]2(OC1)O[C@H]1CC3C4CC[C@@H]5C[C@@H](O)CC[C@]5(C)C4CC[C@]3(C)[C@H]1[C@@H]2C (some centres not stated) | > 4 mM (inactive)
39 | O=C(NN1C(=O)CSC1=S)c1ccccc1 | > 4 mM (inactive)
40 | CN(C)C(=O)N1CCN(C(=O)c2ccco2)CC1 | > 4 mM (inactive)
41 | Nc1nc2c3ccccc3nc(Cc3ccccc3)n2n1 | > 4 mM (inactive)
42 | Cc1n[nH]c(C)c1NC(=O)c1cccc(F)c1 | > 4 mM (inactive)
43 | CC(=O)Cc1nsc(NC(=O)c2ccc(C)cc2)n1 | > 4 mM (inactive)
44 | CC(=O)Nn1cc2c(=O)n(C)c(=O)n(C)c2c1 | > 4 mM (inactive)
45 | CS(=O)(=O)c1cccc(C(=O)Nc2nccs2)c1 | > 4 mM (inactive)
46 | Cc1ccccc1-n1c(-c2ccncc2)n[nH]c1=S | > 4 mM (inactive)
47 | COc1cc(C)nc(N(CCO)CCO)n1 | > 4 mM (inactive)
48 | CCSc1nnc(-c2ccccc2N)c(=O)[nH]1 | > 4 mM (inactive)

Row | SMILES | Kd
49 | O=C(O)CCC(=O)NCc1cccnc1 | > 4 mM (inactive)
50 | COn1c(=O)c(C)[n+]([O-])c2ccccc21 | > 4 mM (inactive)
51 | O=C(O)Cn1cc(C(=O)C2CC2)c2ccccc21 | > 4 mM (inactive)
52 | Cc1nn(C)c(Cl)c1S(=O)(=O)N1CCOCC1 | > 4 mM (inactive)
53 | Cc1n[nH]c(=S)n1-c1ccc(C(=O)O)cc1 | > 4 mM (inactive)
54 | Cc1cc(O)c2c(c1)C(=O)c1cccc(O)c1C2=O | > 4 mM (inactive)
55 | COc1ccc(/C=C/c2cc(O)cc(O)c2)cc1 | > 4 mM (inactive)
56 | CC(C)c1ccc2c(c1)CCC1C(C)(C(N)=O)CCCC21C (configuration not stated) | > 4 mM (inactive)
57 | NC(=O)C1(S(=O)(=O)c2ccccc2)CC1 | > 4 mM (inactive)
58 | C/C1=C/CC(C)(C)/C=C/C/C(C)=C/CC1 | > 4 mM (inactive)
59 | O=C(Nc1cccc(C(F)(F)F)c1)c1cccnc1 | > 4 mM (inactive)
60 | Cc1[nH]c2ccccc2c(=O)c1CO | > 4 mM (inactive)
61 | C[C@@H]1C(=O)OC2[C@H](O)C34[C@@H]5OC(=O)[C@@]3(O[C@@H]3OC(=O)[C@H](O)[C@@]34[C@H](C(C)(C)C)[C@H]5O)[C@]21O (some centres not stated) | > 4 mM (inactive)
62 | OC[C@H]1O[C@@H](n2cnc3c(NCc4ccco4)ncnc32)[C@H](O)[C@@H]1O | > 4 mM (inactive)
63 | COC(=O)c1cccc2cc[nH]c12 | > 4 mM (inactive)
64 | CCOCC(=O)N1CCc2ccccc21 | > 4 mM (inactive)
65 | OCc1cccc2c1OCO2 | > 4 mM (inactive)
66 | O=C(NCc1n[nH]c(=O)c2ccccc12)C1CC1 | > 4 mM (inactive)
67 | CSc1nnc(-c2ccccc2NC(C)=O)o1 | > 4 mM (inactive)
68 | O=C(Nc1cccnc1)c1c(F)cccc1F | > 4 mM (inactive)
69 | OCc1nccn1Cc1ccccc1 | > 4 mM (inactive)
70 | C/C1=C\CCC(=O)C2CC(C)(C)C2CC1 (configuration not stated) | > 4 mM (inactive)
71 | CCS(=O)(=O)N1CCN(c2ccccc2F)CC1 | > 4 mM (inactive)
72 | CSCCNC(C)=O | > 4 mM (inactive)

Row | SMILES | Kd
73 | Cc1cc(N)ccc1NC(=O)c1ccco1 | > 4 mM (inactive)
74 | CC(=O)N[C@@H](CC(=O)O)C(=O)N[C@@H](CCC(=O)O)C(=O)O (Ac-Asp-Glu-OH) | > 4 mM (inactive)
75 | CC(=O)c1cccc(NC(=O)C=C(C)C)c1 | > 4 mM (inactive)
76 | CC[C@@H]1[C@@H](O)N2C3C[C@H]1C1C(O)[C@]4(C[C@@H]12)c1ccccc1N(C)[C@@H]34 (some centres not stated) | > 4 mM (inactive)
77 | O=C(COc1ccccc1O)NCCO | > 4 mM (inactive)
78 | COCC(=O)Nc1cccc2ccccc12 | > 4 mM (inactive)
79 | Nc1ccccc1N1CCOCC1 | > 4 mM (inactive)
80 | COC(=O)c1ccc(N2CCCC2)nc1 | > 4 mM (inactive)
81 | NC(=O)CC1Nc2cccc3cccc(c23)NC1=O (configuration not stated) | > 4 mM (inactive)
82 | CCN(CC)c1nc2n(c(=O)n1)CCO2 | > 4 mM (inactive)
83 | CCN1C[C@@]2(COC)C3[C@@H](OC)[C@H]4[C@@H]1[C@]3(C(OC)C[C@H]2O)C1C[C@@]2(O)[C@H](OC(=O)c3ccccc3)C1[C@]4(OC(C)=O)[C@@H](O)[C@@H]2OC (some centres not stated) | > 4 mM (inactive)
84 | CCC(CO)NC(=O)c1snnc1C (configuration not stated) | > 4 mM (inactive)
85 | CC(C)=CCc1c2c(c3occ(-c4ccc(O)c(O)c4)c(=O)c3c1O)C=CC(C)(C)O2 | > 4 mM (inactive)
86 | N#Cc1nc(-c2cccs2)oc1N1CCOCC1 | > 4 mM (inactive)
87 | COC(=O)CSc1nc(N)cc(=O)[nH]1 | > 4 mM (inactive)
88 | NC(=O)C1CCN(C(=S)c2cccs2)CC1 | > 4 mM (inactive)
89 | CCSc1nc(=S)n(CC)c(C)c1C(C)=O | > 4 mM (inactive)
90 | O=C1CCN(c2ccccc2)N1 | > 4 mM (inactive)
91 | CN1C(=O)N(C)C2NC(=O)NC21 (configuration not stated) | > 4 mM (inactive)
92 | C[C@]12CCC3C(CC[C@]4(O)C[C@@H](O)CC[C@]34C=O)[C@@]1(O)CCC2C1=CC(=O)OC1 (some centres not stated) | > 4 mM (inactive)
93 | O=C(O)c1csc2ccccc12 | > 4 mM (inactive)
94 | c1ccc(SCc2nc(-c3ccncc3)no2)cc1 | > 4 mM (inactive)
95 | OCCCc1nc2ccccc2[nH]1 | > 4 mM (inactive)
96 | c1ccc(CN2CCC3(CC2)Nc2ccccc2CO3)cc1 | > 4 mM (inactive)

Row | SMILES | Kd
97 | Cn1c(=O)c2c(ncn2CCNC2=NCCC2)n(C)c1=O | > 4 mM (inactive)
98 | CC(C)(C)c1cc(CN)c(C(=O)O)o1 | > 4 mM (inactive)
99 | O=C(CSc1cccc2cccnc12)N1CCCC1 | > 4 mM (inactive)
100 | Cc1cc(-c2ccccc2)nc2cc(C(N)=O)nn12 | > 4 mM (inactive)
101 | OCc1ccccc1O[C@@H]1O[C@H](CO)[C@@H](O)[C@H](O)[C@H]1O | > 4 mM (inactive)
102 | O=C(NCc1cccnc1)c1ccccn1 | > 4 mM (inactive)
103 | CC1=CCCC2C1(C)CCC(C)C2(C)CC/C(C)=C/C[n+]1cn(C)c2c(N)ncnc21 (configuration not stated) | > 4 mM (inactive)
104 | NC(=O)c1ccccc1NC(=O)C1CCCO1 (configuration not stated) | > 4 mM (inactive)
105 | O=C1C2CC=CCC2C(=O)N1c1cccc(O)c1 (configuration not stated) | > 4 mM (inactive)
106 | OC1CSc2ncnn2C1 (configuration not stated) | > 4 mM (inactive)
107 | NC1=NC(=O)/C(=C/c2ccc(O)c(Cl)c2)S1 | > 4 mM (inactive)
108 | O=C(O)CSc1nnc(-c2cccs2)o1 | > 4 mM (inactive)
109 | NC(=O)c1ccsc1N | > 4 mM (inactive)
110 | O=C(O)CCc1nc2ccccc2[nH]c1=O | > 4 mM (inactive)
111 | O=C1CSC(=Nc2ccc(F)cc2)N1 | > 4 mM (inactive)
112 | CCC(=O)OC1[C@@H]2CC3=C4CC(=O)O[C@@H](c5ccoc5)[C@]4(C)CCC3C(C)(C2=O)[C@@H](CC(=O)OC)C1(C)C (some centres not stated) | > 4 mM (inactive)
113 | COc1cc(O)c(C(=O)c2ccccc2)cc1O | > 4 mM (inactive)
114 | Nc1cc2ccccc2cn1 | > 4 mM (inactive)
115 | COc1c(O)cc2oc3cc(O)c(CC=C(C)C)c(O)c3c(=O)c2c1CC=C(C)C | > 4 mM (inactive)
116 | COc1ccc(NS(=O)(=O)c2ccc(N)cc2)nn1 | > 4 mM (inactive)
117 | FC(F)(F)c1cc(-c2ccco2)nc(N2CCOCC2)n1 | > 4 mM (inactive)
